The test system of the experiment is SIRT6. Put plainly: SIRT6 expression by immunohistochemistry in Normal Human Epidermal Keratinocytes. It is filed as cell-based. Particulars: 1% and 3% of a 50 ppm peptide solution, 48 h treatment, FIG. 2. On the procedure:
SIRT6 is a member of the conserved family of sirtuin proteins which are associated with metabolism and longevity. SIRT6 is a histone 3, lysine 9 (H3K9) deacetylase and is primarily involved in DNA repair and telomere stability. The peptide of (SEQ ID No. 5) Gly-Ala-Gly-Val-Ser-Ala-Glu-NH2 was tested for Sirt6 stimulating activity as follows.
• Normal Human Epidermal Keratinocytes p3 • EpiLife Medium (Invitrogen) • Human Keratinocyte Growth Supplement (Invitrogen) • 1× Dulbecco's Phosphate Buffered Saline (DPBS) made from: • 10× DPBS (Mediatech) • Distilled, Deionized Water • Peptide of SEQ ID No. 5 • Rabbit polyclonal antibody to Sirt6 (Abcam) • Alexa Fluor 488 donkey anti-rabbit IgG (H+L) (Invitrogen) • Triton-X 100 (Fisher) • Albumin, Bovine (Sigma) • Vectashield with 4′,6-diamidino-2-phenylindole (DAPI) (Vector)
• 1. Cells were plated into 4 well chamber slides @ 10,000 cells/chamber and incubated at 37° C., 5% CO2 & 95% humidity for 24 hours. • 2. The peptide of SEQ ID No. 5 was prepared as follows: • 2.1. Dissolved 5 mg peptide in 5 ml medium to make a 1000 ppm stock solution. • 2.2. Diluted the stock solution to 50 ppm by combining 400 μl 1000 ppm stock solution with 7.6 ml medium • 2.3. Prepared a 3% of the 50 ppm solution by combining 1.5 ml 50 ppm stock with 48.5 ml medium • 2.4. Prepared a 1% of the 50 ppm solution by combining 0.5 ml 50 ppm stock with […] medium • 3. […]

Ends that are not written are not given here.

Regarding “Gly-Ala-Gly-Val-Ser-Ala-Glu-NH2 (GAGVSAE-NH2) [SEQ ID No. 5]”, the SIRT6 expression result is “dose dependent increase in SIRT6 expression”.

The record behind these values is US20150098963A1, “METHODS AND COMPOSITIONS FOR IMPROVING THE APPEARANCE OF SKIN” (priority 2013, published 2015).
